Data from patent publication US9597337B2, “Berberine-ursodeoxycholic acid conjugate for treating the liver” (NORTH AMERICAN BIOMEDICAL RESEARCH CENTER USA, INC., priority 2014, dated 2017).
Like-named read-outs stand apart in the source and are kept apart here.

Assays:
KMCH cells [1] = experiment: CCK-8 cell viability assay in KMCH cells; type: cell-based
Excerpt: (§1) FIG. 2 is a set of graphs showing the ability of various molecules to kill KMCH and GS-Li013 cells, which are cholangiocarcinoma cells. The data presented in FIG. 2 is based on in-vtro studies. The y-axis of each graph represents the Cell viability percentage 205 of KMCH and GS-Li013 cells. The x-axis of each graph represents the Log[C]210. [C] refers to the concentration of the molecule tested in uM. IC50 commonly refers to the half maximal inhibitory concentration, and is used to numerically represent the efficacy of various molecules to be effective in their respective tasks. In this case, IC50 means the concentration at which half of the target cells are no longer viable. […] The unit uM is used to represent the IC50 value. uM is the same as micro molar concentration, which is 10^−6 moles/liter, a common concentration unit.
(§2) To obtain the data in FIG. 2, Cell Counting Kit-8 (CCK-8) was used. CCK-8 is commercially available from Dojindo Molecular Technologies, Inc. CCK-8 allows sensitive colorimetric assays for the determination of cell viability in cell proliferation and cytotoxicity assays. Dojindo's highly water-soluble tetrazolium salt, used in CCK-8, is reduced by dehydrogenase activities in cells to give a yellow-color formazan dye, which is soluble in the tissue culture media. The amount of the formazan dye, generated by the activities of dehydrogenases in cells, is directly proportional to the number of living cells. The detection sensitivity of CCK-8 may be higher than the other tetrazolium salts such as MTT, XTT, MTS or WST-1. Cancerous cells in a cell culture were exposed to the either irinotecan, ursodeoxycholic acid, berberine, or NABR01, and the results were recorded. Various concentrations of each molecule were used, resulting in different amount of cell viability. Cell viability was measured according to the procedures of CCK-8, namely higher cell counts lead to higher absorption measurements, which would mean lower drug efficacy.
DLD1 refers to Dukes' type C, colorectal adenocarcinoma, and NABR01 has an IC50 of 5.0 uM for DLD1. HCT2 refers to a hamster lymphoid cell line, and NABR01 has an IC50 of 6.0 uM for HCT2. […] NABR01 has an unexpectedly effective IC50 of less than 10 uM for the cell lines described above, and the related cancers.

GS-Li013 cells = experiment: CCK-8 cell viability assay in GS-Li013 cells; type: cell-based; conditions: GS-Li013 (GS-cell lines), 24 hour treatment
Excerpt: as §1, §2

MDA231 = experiment: CCK-8 cell viability assay, MDA231; type: cell-based; conditions: Homo sapiens, MDA-MB-231, MDA231, 48 hour period
Excerpt: as §2
(§3) As shown in FIGS. 19-20, the efficacy of NABR01 can vary greatly depending on the cancerous cell line, and as a result, NABR01 may not be effective against certain cell lines. […]

PANC1 = experiment: CCK-8 cell viability assay, PANC1; type: cell-based; conditions: Homo sapiens, PANC-1, PANC1, 48 hour period
Excerpt: as §2
(§4) DLD1 refers to Dukes' type C, colorectal adenocarcinoma, and NABR01 has an IC50 of 5.0 uM for DLD1. HCT2 refers to a hamster lymphoid cell line, and NABR01 has an IC50 of 6.0 uM for HCT2. […]

HepG2 = experiment: CCK-8 cell viability assay, HepG2; type: cell-based; conditions: Homo sapiens, HepG2, 48 hour period
Excerpt: as §2, §4

HCT = experiment: CCK-8 cell viability assay, HCT; type: cell-based; conditions: 48 hour period
Excerpt: as §2, §4

MDA468 = experiment: CCK-8 cell viability assay, MDA468; type: cell-based; conditions: MDA468, 48 hour period
Excerpt: as §2, §4

PC3 = experiment: CCK-8 cell viability assay, PC3; type: cell-based; conditions: Homo sapiens, PC-3, PC3, 48 hour period
Excerpt: as §2, §3

MCF7 = experiment: CCK-8 cell viability assay, MCF7; type: cell-based; conditions: Homo sapiens, MCF7, 48 hour period
Excerpt: as §2, §4

KMCH tumor = experiment: Tumor xenograft study in mice; type: in vivo
Excerpt: Tumor xenografts studies in mice indicate that the tumor growth corresponding to weight and volume in NABR01 treated group of mice was reduced by approximately 45% in size when treated for 21 days.

HCT2 = experiment: CCK-8 cell viability assay, HCT2; type: cell-based, hamster; conditions: Mesocricetus auratus, HCT2, 48 hour period
Excerpt: as §2, §4

U2OS = experiment: CCK-8 cell viability assay, U2OS; type: cell-based; conditions: Homo sapiens, 48 hour period
Excerpt: as §2, §4

HT29 = experiment: CCK-8 cell viability assay, HT29; type: cell-based; conditions: Homo sapiens, HT-29, HT29, 48 hour period
Excerpt: as §2, §4

KMCH cells [2] = experiment: Western blot analysis of signaling and apoptosis proteins in KMCH cells; type: cell-based; conditions: for cytochrome C release from mitochondria, western blot: berberine at same concentration as NABR01
Protocol: FIGS. 6-18 is data which illustrates the mechanism of action for NABR01. Once a mechanism of action is known, it may become possible to predict with some level of accuracy the effects a drug may have, though extensive testing would still be required. Until a mechanism is known, it is extremely difficult to predict what a particular molecule or compound may be useful for, if it is even useful at all. A western blot analysis was performed for MAP kinase signaling proteins, phospho p38, phospho JNK and phospho ERK in KMCH cells with and without NABR01 treatment.
The cytotoxic effect of NABR01 in addition to downregulation of Bcl2, may be attributed to an increase in proapoptotic protein Bim which is specifically cleaved to generate the cytotoxic Bims-form in KMCH cells are treated with NABR01. Caspase-9 is cleaved in cells treated with NABR01 indicating an upstream activation of Caspase 3. […] Accordingly, not only does the ursodiol component of NABR01 assist in targeting, but ursodiol also increases efficacy of the compound when introduced directly to the relevant cells, a wholly unexpected effect.
The activity of pro-inflammatory signaling pathway protein phospho STAT may also increase in NABR01 treated cells.

SJSA = experiment: CCK-8 cell viability assay, SJSA; type: cell-based; conditions: 48 hour period
Excerpt: as §2, §3

CCA = experiment: CCK-8 cell viability assay, CCA; type: cell-based; conditions: 48 hour period
Excerpt: as §2, §4

HuCCT = experiment: CCK-8 cell viability assay, HuCCT; type: cell-based; conditions: 48 hour period
Excerpt: as §2, §3

DLD1 = experiment: CCK-8 cell viability assay, DLD1; type: cell-based; conditions: Homo sapiens, DLD-1, DLD1, 48 hour period
Excerpt: as §2, §4

[3] = KMCH cells, 24 hour treatment, read-out: IC50 (cell viability)

CCc1c2c(nc3ccc(OC(=O)N4CCC(N5CCCCC5)CC4)cc13)-c1cc3c(c(=O)n1C2)COC(=O)[C@]3(O)CC [irinotecan]
IC50 (KMCH cells [1]; [3]): 95 µM | IC50 (GS-Li013 cells): 90 µM

COc1ccc2cc3[n+](cc2c1OCCCCCCNC(=O)CC[C@@H](C)[C@H]1CC[C@H]2[C@@H]4[C@@H](O)CC5CC(O)CC[C@]5(C)[C@H]4CC[C@]12C)CCc1cc2c(cc1-3)OCO2 (stereo in doubt) [NABR01, berberine-ursodeoxycholic acid conjugate]
IC50 (KMCH cells [1]; [3]): 15 µM | IC50 (KMCH cells [1]; KMCH, 48 hour period, read-out: IC50): 2.9 µM | IC50 (MDA231): 36 µM | IC50 (PANC1): 3.3 µM | IC50 (HepG2): 5.4 µM | IC50 (HCT): 3.9 µM | IC50 (MDA468): 2.1 µM | IC50 (PC3): 16 µM | IC50 (GS-Li013 cells): 15 µM | IC50 (MCF7): 9.2 µM | tumor weight inhibition (KMCH tumor; mice with a KMCH tumor, 4 mg/kg): 43.46% | tumor growth (weight and volume) reduction in size (KMCH tumor; mice, tumor xenografts, treated for 21 days): approximately 45% | IC50 (HCT2): 6 µM | IC50 (U2OS): 4.3 µM | IC50 (HT29): 5.2 µM | phospho PTEN, western blot (KMCH cells [2]): remain unchanged | pro-apoptotic protein Noxa (KMCH cells [2]): increase | PARP activation by cleavage, western blot (KMCH cells [2]; 10 uM): activated | anti-apoptotic protein Bcl2, western blot (KMCH cells [2]; 10 uM): down regulated | phospho ERK (cell survival pathway), western blot (KMCH cells [2]; 10 uM): downregulated | phospho JNK (cell death signaling pathway), western blot (KMCH cells [2]; 10 uM): increased | phospho p38 (cell death signaling pathway), western blot (KMCH cells [2]; 10 uM): increased | AKT signaling pathway, western blot (KMCH cells [2]; 10 uM, 16 hours): downregulated | phosphor-AKT pathway, western blot (KMCH cells [2]; 10 uM, 16 hours): downregulated | proapoptotic protein Bim (cleaved to Bims-form), western blot (KMCH cells [2]; 10 uM, 24 hours): increase | Caspase-9 cleavage, western blot (KMCH cells [2]; 10 uM, 48 hours): cleaved | Phospho CKH2 (DNA repair), western blot (KMCH cells [2]; 16 hours): increased activity | Total P53 levels, western blot (KMCH cells [2]; 16 hours): downregulated | phospho STAT (pro-inflammatory signaling), western blot (KMCH cells [2]; 16 hours): increase | phosphoATM (DNA repair), western blot (KMCH cells [2]; 16 hours): increased activity | phospho 4EBP1, western blot (KMCH cells [2]; 24 hours): not significantly altered | phospho EF2k, western blot (KMCH cells [2]; 24 hours): not significantly altered | phospho eIF4E, western blot (KMCH cells [2]; 24 hours): not significantly altered | phospho p70S6 kinase, western blot (KMCH cells [2]; 24 hours): not significantly altered | phosphor mTOR 52481 pathway, western blot (KMCH cells [2]; 24 hours): downregulated | cytochrome C release from mitochondria, western blot (KMCH cells [2]): released from mitochondria | Bcl2 protein levels (KMCH cells [2]; by 24hrs of exposure): significant decrease | IC50 (SJSA): 14 µM | IC50 (CCA): 4.8 µM | IC50 (HuCCT): 15 µM | IC50 (DLD1): 5 µM

COc1ccc2cc3[n+](cc2c1OC)CCc1cc2c(cc1-3)OCO2 [berberine]
IC50 (KMCH cells [1]; [3]): 200 µM | IC50 (GS-Li013 cells): 200 µM | phospho ERK (cell survival pathway), western blot (KMCH cells [2]; 10 uM): not observed | phospho JNK (cell death signaling pathway), western blot (KMCH cells [2]; 10 uM): not observed | phospho p38 (cell death signaling pathway), western blot (KMCH cells [2]; 10 uM): not observed | cytochrome C release from mitochondria, western blot (KMCH cells [2]): did not result in the release

C[C@H](CCC(=O)O)[C@H]1CC[C@H]2[C@@H]3[C@@H](O)C[C@@H]4C[C@H](O)CC[C@]4(C)[C@H]3CC[C@]12C [ursodeoxycholic acid]
IC50 (cell viability) (KMCH cells [1]; KMCH cells, 24 hour treatment): no IC50 | IC50 (cell viability) (GS-Li013 cells): no IC50
